Activity calls are given as the source filed them.
What was measured:
Type in all cases: functional, cell-based
CCRF-CEM = assay: Growth inhibition of human CCRF-CEM cells at 10 uM after 48 hrs by sulforhodamine B assay
HL-60(TB) = assay: Growth inhibition of human HL-60(TB) cells at 10 uM after 48 hrs by sulforhodamine B assay
K562 = assay: Growth inhibition of human K562 cells at 10 uM after 48 hrs by sulforhodamine B assay
MOLT-4 = assay: Growth inhibition of human MOLT4 cells at 10 uM after 48 hrs by sulforhodamine B assay
RPMI-8226 = assay: Growth inhibition of human RPMI8226 cells at 10 uM after 48 hrs by sulforhodamine B assay
SR = assay: Growth inhibition of human SR cells at 10 uM after 48 hrs by sulforhodamine B assay
A549 = assay: Growth inhibition of human A549/ATCC cells at 10 uM after 48 hrs by sulforhodamine B assay
EKVX = assay: Growth inhibition of human EKVX cells at 10 uM after 48 hrs by sulforhodamine B assay
HOP-62 = assay: Growth inhibition of human HOP62 cells at 10 uM after 48 hrs by sulforhodamine B assay
HOP-92 = assay: Growth inhibition of human HOP92 cells at 10 uM after 48 hrs by sulforhodamine B assay
NCI-H226 = assay: Growth inhibition of human NCI-H226 cells at 10 uM after 48 hrs by sulforhodamine B assay
NCI-H23 = assay: Growth inhibition of human NCI-H23 cells at 10 uM after 48 hrs by sulforhodamine B assay
NCI-H322M = assay: Growth inhibition of human NCI-H322M cells at 10 uM after 48 hrs by sulforhodamine B assay
NCI-H460 = assay: Growth inhibition of human NCI-H460 cells at 10 uM after 48 hrs by sulforhodamine B assay
NCI-H522 = assay: Growth inhibition of human NCI-H522 cells at 10 uM after 48 hrs by sulforhodamine B assay
COLO 205 = assay: Growth inhibition of human COLO205 cells at 10 uM after 48 hrs by sulforhodamine B assay
HCC 2998 = assay: Growth inhibition of human HCC2998 cells at 10 uM after 48 hrs by sulforhodamine B assay
HCT-116 = assay: Growth inhibition of human HCT116 cells at 10 uM after 48 hrs by sulforhodamine B assay
HCT-15 = assay: Growth inhibition of human HCT15 cells at 10 uM after 48 hrs by sulforhodamine B assay
HT-29 = assay: Growth inhibition of human HT-29 cells at 10 uM after 48 hrs by sulforhodamine B assay
KM12 = assay: Growth inhibition of human KM12 cells at 10 uM after 48 hrs by sulforhodamine B assay
SW-620 = assay: Growth inhibition of human SW620 cells at 10 uM after 48 hrs by sulforhodamine B assay
SF-268 = assay: Growth inhibition of human SF268 cells at 10 uM after 48 hrs by sulforhodamine B assay
SF-295 = assay: Growth inhibition of human SF295 cells at 10 uM after 48 hrs by sulforhodamine B assay
SF-539 = assay: Growth inhibition of human SF539 cells at 10 uM after 48 hrs by sulforhodamine B assay
SNB-19 = assay: Growth inhibition of human SNB19 cells at 10 uM after 48 hrs by sulforhodamine B assay
SNB-75 = assay: Growth inhibition of human SNB75 cells at 10 uM after 48 hrs by sulforhodamine B assay
U-251 = assay: Growth inhibition of human U251 cells at 10 uM after 48 hrs by sulforhodamine B assay
LOX IMVI = assay: Growth inhibition of human LOXIMVI cells at 10 uM after 48 hrs by sulforhodamine B assay
Malme-3M = assay: Growth inhibition of human MALME-3M cells at 10 uM after 48 hrs by sulforhodamine B assay
M14 = assay: Growth inhibition of human M14 cells at 10 uM after 48 hrs by sulforhodamine B assay
MDA-MB-435 = assay: Growth inhibition of human MDA-MB-435 cells at 10 uM after 48 hrs by sulforhodamine B assay
SK-MEL-2 = assay: Growth inhibition of human SK-MEL-2 cells at 10 uM after 48 hrs by sulforhodamine B assay
SK-MEL-28 = assay: Growth inhibition of human SK-MEL-28 cells at 10 uM after 48 hrs by sulforhodamine B assay
SK-MEL-5 = assay: Growth inhibition of human SK-MEL-5 cells at 10 uM after 48 hrs by sulforhodamine B assay
UACC-62 = assay: Growth inhibition of human UACC62 cells at 10 uM after 48 hrs by sulforhodamine B assay
IGROV-1 = assay: Growth inhibition of human IGROV1 cells at 10 uM after 48 hrs by sulforhodamine B assay
OVCAR-3 = assay: Growth inhibition of human OVCAR3 cells at 10 uM after 48 hrs by sulforhodamine B assay
OVCAR-4 = assay: Growth inhibition of human OVCAR4 cells at 10 uM after 48 hrs by sulforhodamine B assay
OVCAR-5 = assay: Growth inhibition of human OVCAR5 cells at 10 uM after 48 hrs by sulforhodamine B assay
OVCAR-8 = assay: Growth inhibition of human OVCAR8 cells at 10 uM after 48 hrs by sulforhodamine B assay
NCI/ADR-RES = assay: Growth inhibition of human NCI-ADR-RES cells at 10 uM after 48 hrs by sulforhodamine B assay
SK-OV-3 = assay: Growth inhibition of human SKOV3 cells at 10 uM after 48 hrs by sulforhodamine B assay
786-0 = assay: Growth inhibition of human 786-0 cells at 10 uM after 48 hrs by sulforhodamine B assay
A498 = assay: Growth inhibition of human A498 cells at 10 uM after 48 hrs by sulforhodamine B assay
ACHN = assay: Growth inhibition of human ACHN cells at 10 uM after 48 hrs by sulforhodamine B assay
CAKI-1 = assay: Growth inhibition of human CAKI-1 cells at 10 uM after 48 hrs by sulforhodamine B assay
RXF 393 = assay: Growth inhibition of human RXF393 cells at 10 uM after 48 hrs by sulforhodamine B assay
SN12C = assay: Growth inhibition of human SN12C cells at 10 uM after 48 hrs by sulforhodamine B assay
TK-10 = assay: Growth inhibition of human TK10 cells at 10 uM after 48 hrs by sulforhodamine B assay
UO-31 = assay: Growth inhibition of human UO31 cells at 10 uM after 48 hrs by sulforhodamine B assay
PC-3 = assay: Growth inhibition of human PC3 cells at 10 uM after 48 hrs by sulforhodamine B assay
DU-145 = assay: Growth inhibition of human DU145 cells at 10 uM after 48 hrs by sulforhodamine B assay
MCF7 = assay: Growth inhibition of human MCF7 cells at 10 uM after 48 hrs by sulforhodamine B assay
MDA-MB-231 = assay: Growth inhibition of human MDA-MB-231 cells at 10 uM after 48 hrs by sulforhodamine B assay
Hs-578T = assay: Growth inhibition of human Hs 578T cells at 10 uM after 48 hrs by sulforhodamine B assay
BT-549 = assay: Growth inhibition of human BT549 cells at 10 uM after 48 hrs by sulforhodamine B assay
T47D = assay: Growth inhibition of human T47D cells at 10 uM after 48 hrs by sulforhodamine B assay
MDA-MB-468 = assay: Growth inhibition of human MDA-MB-468 cells at 10 uM after 48 hrs by sulforhodamine B assay

Measured: growth inhibition (GI)

Cc1ccc(S(=O)(=O)n2cccc2/C=C2\C(=O)N(c3c(Cl)cccc3Cl)c3ccccc32)cc1
inactive: CCRF-CEM | HL-60(TB) | K562 | MOLT-4 | RPMI-8226 | SR | A549 | EKVX | HOP-62 | HOP-92 | NCI-H226 | NCI-H23 | NCI-H322M | NCI-H460 | NCI-H522 | COLO 205 | HCC 2998 | HCT-116 | HCT-15 | HT-29 | KM12 | SW-620 | SF-268 | SF-295 | SF-539 | SNB-19 | SNB-75 | U-251 | LOX IMVI | Malme-3M | M14 | MDA-MB-435 | SK-MEL-2 | SK-MEL-28 | SK-MEL-5 | UACC-62 | IGROV-1 | OVCAR-3 | OVCAR-4 | OVCAR-5 | OVCAR-8 | NCI/ADR-RES | SK-OV-3 | 786-0 | A498 | ACHN | CAKI-1 | RXF 393 | SN12C | TK-10 | UO-31 | PC-3 | DU-145 | MCF7 | MDA-MB-231 | Hs-578T | BT-549 | T47D | MDA-MB-468

— ChEMBL document CHEMBL4177730, “Rational modification of semaxanib and sunitinib for developing a tumor growth inhibitor targeting ATP binding site of tyrosine kinase” (2018)
